In patent US8338565B2, “Macrocyclic compounds for inhibition of tumor necrosis factor alpha” (Ensemble Therapeutics Corporation, priority 2008, dated 2012):
Read-outs that look alike come from different tables or passages of the source. Values belong to the compound of their own block, whether it stands above or below them. Numbered stars: 1 amine (or outer) side, 2 acyl side, 3 side chain; on linkers, the order of the positions; unused ones are H or OH. Bridge positions count the residues as written; N and C are the ends. Square brackets hold non-standard residues; d marks the D form. Peptide text beside a SMILES is read from it. Tartaroyl(2R,3R-(OAc)2) = CC(=O)O[C@@H](C(=O)[*:1])[C@@H](OC(C)=O)C(=O)[*:2]; dBip = N[C@H](Cc1ccc(-c2ccccc2)cc1)C(=O)O; dPhe(4-NH2) = Nc1ccc(C[C@@H](N)C(=O)O)cc1; Phe(4-Br) = N[C@@H](Cc1ccc(Br)cc1)C(=O)O; Phe(4-NH2) = Nc1ccc(C[C@H](N)C(=O)O)cc1; 2Thi = N[C@@H](Cc1cccs1)C(=O)O; d2Thi = N[C@H](Cc1cccs1)C(=O)O; Suc = O=C(CCC(=O)[*:2])[*:1]

Tests used:
[1] = target: T1, TNFα / TNFα receptor (TNFα R1/Fc) (Homo sapiens, UniProt P01375); test: Inhibition of binding of TNFα to the TNFα receptor (plate ELISA competition); conditions: Table 2
T1 construct: purchased R&D Systems
Summary of the method: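 Compound dilutions were preincubated 30 min at RT with 8.33 nM TNFα R1/Fc in PBST with 2% DMSO, then added to wells coated with 15 nM TNFα for 30 min. Bound receptor was detected with HRP anti-human Fc and TMB, read as A450.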

[2] = test system: TNF-α (degradation of IkB in HeLa cells or A431 cells); test: Human cell-based assay: inhibition of TNF-α induced degradation of IkB; conditions: for inhibition at 5 µM: read-out: Inhibition at Various Compound Concentrations, 5 μM; for inhibition at 10 µM: read-out: Inhibition at Various Compound Concentrations, 10 μM
[3] = test system: rat paw edema model; test: Rat paw edema model (carrageenan), anti-inflammatory activity; type: in vivo, Sprague-Dawley (SD) rats
Protocol: Compounds 3, 4, 10 and 202 were tested in a rat paw edema model to determine anti-inflammatory activity. Seven groups (one for Vehicle A [15 mL PEG400, 3 mL Graves Grain alcohol (190 proof), 1.8 mL dimethylacetamide and 10.2 mL deionized water] alone as a negative control, one for Vehicle B [0.1M NaHCO3] alone as a negative control, one for each of the four test compounds dissolved in Vehicle A, and one for indomethacin dissolved in Vehicle B as a positive control), each group containing six Sprague-Dawley (SD) rats (180-200 g) randomized by weight. Initial paw volumes were measured by placing the right hind limb of the rat up to the top of the hock in a beaker of water sitting on a scale that had been tared to zero and recording the readout.
Rats were pre-treated with either i) one of the test compounds, or ii) a positive or negative control. Vehicle A alone and test compound dissolved in Vehicle A (Compound 3-1.0 mg/kg; Compound 4-0.4 mg/kg; Compound 10-0.5 mg/kg; Compound 202-0.3 mg/kg) were administered by intravenous injection. Vehicle B alone and indomethacin (5 mg/kg in 0.1M NaHCO3) was administered by intraperitoneal injection. Thirty minutes after this pretreatment, rats were anesthetized and injected with 0.1 mL of carrageenan (10 mg/mL in water) in the subplantar region of the right hind foot using a ½ inch 26 gauge needle attached to a 1 cc syringe.
At 2, 4 and 6 hours post-carrageenan injection, the right hind foot of each rat was measured for paw volume as described above.
We next investigated the effect of varying intravenous doses of Compound 202 (0.05, 0.10, 0.30, and 1.00 mg/kg) in the same model using the same protocol (6 rats per group). […] We also investigated the affect of oral dosing (10 mg/kg) of Compound 202 in the same model. For oral dosing, a 2.5 mg/mL suspension of Compound 202 was prepared in Vehicle A. Rats were orally administered 4 mL/kg of that suspension.

[4] = read-out: Activity (IC50, inhibition of TNFα binding to TNFα R1/Fc)
[5] = 5 μM compound, HeLa or A431 cells
[6] = 10 μM compound, HeLa or A431 cells
[7] = Table 8, 1 mg/kg IV, 2 h post-carrageenan
[8] = Table 8, 1 mg/kg IV, 4 h post-carrageenan
[9] = Table 8, 1 mg/kg IV, 6 h post-carrageenan

T1 sequence (P01375 77-233 limits assumed, species assumed): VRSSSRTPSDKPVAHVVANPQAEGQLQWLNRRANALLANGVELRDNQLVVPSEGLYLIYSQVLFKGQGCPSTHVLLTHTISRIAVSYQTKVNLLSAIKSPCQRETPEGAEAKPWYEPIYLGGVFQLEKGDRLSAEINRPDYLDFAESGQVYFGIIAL

Structure (SMILES): O=C1COc2ccc(cc2)C[C@@H](C(=O)NC2(C(=O)O)CC2)NC(=O)[C@H](Cc2ccccc2)NC(=O)[C@@H](Cc2ccc(-c3ccccc3)cc2)NC(=O)[C@H](Cc2cccs2)N1 [Compound 391]
IC50 ([1]; Activity (IC50, inhibition of TNFα binding to TNFα R1/Fc)): < 10 µM | inhibition at 5 µM [2]: 10 to 50% | inhibition at 10 µM [2]: 10 to 50%

IC50 [1, 4]: < 10 µM
Structure (SMILES): O=C(O)CCCCCNC(=O)[C@@H]1Cc2ccc(cc2)OCC(=O)N[C@H](Cc2cccs2)C(=O)N[C@@H](Cc2ccc(-c3ccccc3)cc2)C(=O)N[C@H](CCc2ccccc2)C(=O)N1 [Compound 395]
inhibition at 5 µM [2, 5]: < 10% | inhibition at 10 µM [2, 6]: < 10%

Structure (SMILES): O=C1COc2ccc(cc2)C[C@@H](C(=O)O)NC(=O)[C@H](Cc2ccccc2)NC(=O)[C@H](Cc2ccc(-c3ccc(C(=O)OCc4ccccc4)cc3)cc2)NC(=O)[C@H](Cc2cccs2)N1 [Compound 396]
IC50 [1, 4]: < 10 µM | inhibition at 5 µM [2]: 10 to 50% | inhibition at 10 µM [2]: 50 to 80%

IC50 [1, 4]: < 10 µM
Structure (SMILES): CC(=O)O[C@H]1C(=O)Nc2ccc(cc2)C[C@H](C(=O)N[C@@H](Cc2ccccc2)C(=O)O)NC(=O)[C@@H](Cc2ccccc2)NC(=O)[C@H](Cc2ccc(Br)cc2)NC(=O)[C@@H](Cc2cccs2)NC(=O)[C@@H]1OC(C)=O [Compound 410] ([d2Thi][Phe(4-Br)][dF][dPhe(4-NH2)]F-OH; linker N-4 via Tartaroyl(2R,3R-(OAc)2))
inhibition at 5 µM [2, 5]: < 10% | inhibition at 10 µM [2, 6]: 10 to 50%

IC50 [1, 4]: < 10 µM
Structure (SMILES): O=C1CCC(=O)N[C@@H](Cc2cccs2)C(=O)N[C@H](Cc2ccc(-c3ccccc3)cc2)C(=O)N[C@@H](Cc2ccccc2)C(=O)N[C@H](C(=O)O)Cc2ccc(cc2)N1 [Compound 493] ([2Thi][dBip]F[Phe(4-NH2)]-OH; linker N-4 via Suc)
Change in Paw Volume [3, 7]: 1.04 ± 0.15 mL | Change in Paw Volume [3, 8]: 1.12 ± 0.10 mL | Change in Paw Volume [3, 9]: 1.03 ± 0.15 mL

IC50 [1, 4]: 10 to 30 µM
Structure (SMILES): O=C1CCC(=O)N[C@@H](Cc2cccs2)C(=O)N[C@H](Cc2ccc(-c3ccccc3)cc2)C(=O)N[C@@H](Cc2ccccc2)C(=O)N[C@@H](C(=O)O)Cc2ccc(cc2)N1 [Compound 500] ([2Thi][dBip]F[dPhe(4-NH2)]-OH; linker N-4 via Suc)
Change in Paw Volume [3, 7]: 0.98 ± 0.24 mL | Change in Paw Volume [3, 8]: 1.07 ± 0.21 mL | Change in Paw Volume [3, 9]: 0.98 ± 0.14 mL

IC50 [1, 4]: < 10 µM
Structure (SMILES): O=C1COc2ccc(cc2)C[C@@H](C(=O)O)NC(=O)[C@H](CCc2ccccc2)NC(=O)[C@@H](Cc2ccc(-c3ccccc3)cc2)NC(=O)[C@H](Cc2ccncc2)N1 [Compound 506]
Change in Paw Volume ([3]; Table 5, 1 mg/kg IV, 2 h post-carrageenan): 0.74 ± 0.18 mL | Change in Paw Volume ([3]; Table 5, 1 mg/kg IV, 4 h post-carrageenan): 1.05 ± 0.17 mL | Change in Paw Volume ([3]; Table 5, 1 mg/kg IV, 6 h post-carrageenan): 0.86 ± 0.15 mL

Structure (SMILES): COc1ccc2c(c1)c(CC(=O)O)c(C)n2C(=O)c1ccc(Cl)cc1 [indomethacin, reference compound]
Change in Paw Volume ([3]; Table 3, positive control 5 mg/kg IP, 2 h post-carrageenan): 0.61 ± 0.10 mL | Change in Paw Volume ([3]; Table 3, positive control 5 mg/kg IP, 4 h post-carrageenan): 0.92 ± 0.12 mL | Change in Paw Volume ([3]; Table 3, positive control 5 mg/kg IP, 6 h post-carrageenan): 0.99 ± 0.10 mL | Change in Paw Volume ([3]; Table 4, positive control IP (5 mg/kg), 2 h post-carrageenan): 0.61 ± 0.08 mL | Change in Paw Volume ([3]; Table 4, positive control IP (5 mg/kg), 4 h post-carrageenan): 0.82 ± 0.05 mL | Change in Paw Volume ([3]; Table 4, positive control IP (5 mg/kg), 6 h post-carrageenan): 0.90 ± 0.11 mL | Change in Paw Volume ([3]; Table 5, positive control IP (5 mg/kg), 2 h post-carrageenan): 0.82 ± 0.08 mL | Change in Paw Volume ([3]; Table 5, positive control IP (5 mg/kg), 4 h post-carrageenan): 0.94 ± 0.10 mL | Change in Paw Volume ([3]; Table 5, positive control IP (5 mg/kg), 6 h post-carrageenan): 0.87 ± 0.11 mL | Change in Paw Volume ([3]; Table 6, positive control IP (5 mg/kg), 2 h post-carrageenan): 0.63 ± 0.08 mL | Change in Paw Volume ([3]; Table 6, positive control IP (5 mg/kg), 4 h post-carrageenan): 0.79 ± 0.17 mL | Change in Paw Volume ([3]; Table 6, positive control IP (5 mg/kg), 6 h post-carrageenan): 0.82 ± 0.21 mL | Change in Paw Volume ([3]; Table 7, positive control IP (5 mg/kg), 2 h post-carrageenan): 0.75 ± 0.14 mL | Change in Paw Volume ([3]; Table 7, positive control IP (5 mg/kg), 4 h post-carrageenan): 1.02 ± 0.09 mL | Change in Paw Volume ([3]; Table 7, positive control IP (5 mg/kg), 6 h post-carrageenan): 1.07 ± 0.08 mL | Change in Paw Volume ([3]; Table 8, positive control IP (5 mg/kg), 2 h post-carrageenan): 0.76 ± 0.13 mL | Change in Paw Volume ([3]; Table 8, positive control IP (5 mg/kg), 4 h post-carrageenan): 0.92 ± 0.09 mL | Change in Paw Volume ([3]; Table 8, positive control IP (5 mg/kg), 6 h post-carrageenan): 0.74 ± 0.08 mL | Change in Paw Volume ([3]; Table 9, positive control IP (5 mg/kg), 2 h post-carrageenan): 0.75 ± 0.14 mL | Change in Paw Volume ([3]; Table 9, positive control IP (5 mg/kg), 4 h post-carrageenan): 1.02 ± 0.09 mL | Change in Paw Volume ([3]; Table 9, positive control IP (5 mg/kg), 6 h post-carrageenan): 1.07 ± 0.08 mL | Change in Paw Volume ([3]; Table 10, positive control IP (5 mg/kg), 2 h post-carrageenan): 0.63 ± 0.08 mL | Change in Paw Volume ([3]; Table 10, positive control IP (5 mg/kg), 4 h post-carrageenan): 0.79 ± 0.17 mL | Change in Paw Volume ([3]; Table 10, positive control IP (5 mg/kg), 6 h post-carrageenan): 0.82 ± 0.21 mL
